Measured values from publication PMC11008251, “Distribution of 2,2′,5,5′-Tetrachlorobiphenyl (PCB52) Metabolites in Adolescent Rats after Acute Nose-Only Inhalation Exposure” (Environmental Science & Technology, 2024).

Experiment: LC-HRMS analysis of PCB52 metabolites in tissues after 4 h nose-only inhalation
Format: in vivo, Sprague–Dawley rats
Experimental: The Institutional Animal Care and Use Committee of the University of Iowa approved all of the animal protocols. Animals were housed in a temperature- and humidity-controlled room (21 °C, 55% relative humidity) with a 12 h light/dark cycle in an Association for the Assessment and Accreditation of Laboratory Animal Care (AAALAC) accredited animal facility. Animals were provided with food (sterile Teklad 5% stock diet, Harlan, Madison, WI) and water ad libitum throughout the study. Thirty-six male and female Sprague–Dawley rats (7 weeks of age; Charles River, Wilmington, MA) were allowed to acclimate to the animal facility for 8 days after arrival. Prior to exposure, rats (227 ± 27 and 197 ± 13 g, male and female, respectively) were randomly assigned to the exposure groups (n = 6 per group) using a random number generated (Excel, version 2307). Animals were simultaneously exposed for 4 h to a low or high concentration of PCB52-laden per sex) or filtered lab air (Figure 1A). Exposure duration was limited to 4 h along with scheduled training days (30 min at 55 days of age and 2 h at 56 days of age) to acclimate animals and minimize stress. […]
Tissues (brain, cecum and intestinal content, liver, lung, and serum) were homogenized and extracted for LC-HRMS analysis following a published approach; see the Supporting Information.[19] Extracts were analyzed at the High-Resolution Mass Spectrometry Facility at the University of Iowa on a Q-Exactive Orbitrap mass spectrometer (Thermo Fisher Scientific, Waltham, MA, U.S.A.) with an Axquity UPLC-C18 column (particle size: […], 2.1 × 100 mm, Waters, Milford, MA, U.S.A.); see the Supporting Information. […]
All analyses were conducted by using validated standard operating procedures. […] X1-OH-PCB52 estimated concentrations were calculated based on the relative response factor of 4-OH-PCB52. The precision and recoveries of the analyses were further assessed by measuring the recovery of PCB52 and 4-OH-PCB52 from spiked sample blanks and matched blank tissue matrices (Table S6). […]
were extracted and analyzed in parallel. […]

Clc1ccc(Cl)c(-c2cc(Cl)ccc2Cl)c1 [PCB52, 2,2′,5,5′-tetrachlorobiphenyl]
number of PCB52 metabolites identified by LC-HRMS (liver): 7 metabolites | number of PCB52 metabolites identified by LC-HRMS (lung): 9 metabolites | number of PCB52 metabolites identified by LC-HRMS (serum): 9 metabolites
